# What was measured:
# Assay in all cases: relative viability (nuclei count vs DMSO), 5 days (fraction); higher = more cells survive
# [1] = compound: CC1=CN2C(=O)C=C(N=C2C(=C1)C(C)NC3=CC=CC=C3)N4CCOCC4 [TGX 221] + NC(=O)Nc1cc(-c2cccc(F)c2)sc1C(=O)N[C@H]1CCCNC1 [AZD7762] (partner 0.2 µM)
# Method in brief: (§1)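 Relative viability equals treated-well nuclei counts divided by vehicle-well nuclei counts. Counts came from 4× images of lung cancer cell lines grown in 1536-well plates for 5 days after pin-tool dosing on the day after seeding. Dosing used one drug alone or a fixed anchor-drug dose plus five library-drug doses (not always all listed) in √10 steps, and values are medians of duplicate plates.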
# [2] = compound: C1=CC=C(C(=C1)C2=CC=C(C=C2)C3=CSC4=C3C(=C(C(=O)N4)C#N)O)O + Cc1nc(Nc2ncc(C(=O)Nc3c(C)cccc3Cl)s2)cc(N2CCN(CCO)CC2)n1 [Dasatinib] (partner 0.075 µM)
# Method in brief: as §1
# [3] = compound: CC1=CN2C(=O)C=C(N=C2C(=C1)C(C)NC3=CC=CC=C3)N4CCOCC4 [TGX 221] + COc1cccc2cc(-c3nc([C@H]4CC[C@H](C(=O)O)CC4)n4ncnc(N)c34)[nH]c12 [OSI-027] (partner 0.5 µM)
# Method in brief: as §1
# [4] = compound: C1=CC=C(C(=C1)C2=CC=C(C=C2)C3=CSC4=C3C(=C(C(=O)N4)C#N)O)O + CC(=O)c1c(C)c2cnc(Nc3ccc(N4CCNCC4)cn3)nc2n(C2CCCC2)c1=O [Palbociclib] (partner 0.5 µM)
# Method in brief: as §1
Cell Line,relative viability ([1]; first compound 0.08 µM),relative viability ([1]; first compound 0.253 µM),relative viability ([1]; first compound 0.8 µM),relative viability ([1]; first compound 2.53 µM),relative viability ([1]; first compound 8 µM),relative viability ([2]; first compound 0.08 µM),relative viability ([2]; first compound 0.253 µM),relative viability ([2]; first compound 0.8 µM),relative viability ([2]; first compound 2.53 µM),relative viability ([2]; first compound 8 µM),relative viability ([3]; first compound 0.08 µM),relative viability ([3]; first compound 0.253 µM),relative viability ([3]; first compound 0.8 µM),relative viability ([3]; first compound 2.53 µM),relative viability ([3]; first compound 8 µM),relative viability ([4]; first compound 0.08 µM),relative viability ([4]; first compound 0.253 µM),relative viability ([4]; first compound 0.8 µM),relative viability ([4]; first compound 2.53 µM),relative viability ([4]; first compound 8 µM)
LCLC-97TM1,0.139,0.273,0.247,0.128,0.277,0.767,0.979,0.98,0.936,0.806,0.357,0.466,0.494,0.485,0.546,0.24,0.233,0.268,0.26,0.204
NCI-H1734,0.526,0.464,0.499,0.609,0.496,0.396,0.474,0.452,0.489,0.455,0.57,0.579,0.621,0.527,0.532,0.324,0.295,0.261,0.33,0.377
NCI-H661,,,,,,0.771,0.916,1.07,0.834,0.801,0.748,0.695,0.689,0.673,0.706,0.426,0.419,0.392,0.394,0.391
SK-LU-1,,,,,,0.172,0.198,0.161,0.198,0.196,0.31,0.331,0.288,0.273,0.298,0.35,0.37,0.378,0.389,0.355
LC-2-ad,0.832,0.823,0.832,0.777,0.736,0.367,0.545,0.426,0.694,0.475,0.745,0.759,0.931,0.846,0.804,0.416,0.406,0.461,0.499,0.441
NCI-H1355,0.691,0.679,0.775,0.65,0.675,0.619,0.668,0.708,0.64,0.639,0.377,0.427,0.385,0.314,0.331,0.445,0.413,0.437,0.412,0.378
NCI-H1793,0.295,0.303,0.313,0.347,0.266,0.356,0.354,0.419,0.4,0.326,0.249,0.237,0.248,0.183,0.218,0.255,0.422,0.316,0.285,0.261
H3255,0.766,0.907,0.932,0.822,0.71,0.369,0.352,0.255,0.39,0.35,0.535,0.593,0.506,0.539,0.571,0.311,0.346,0.294,0.31,0.319
NCI-H2342,0.421,0.448,0.496,0.489,0.524,0.315,0.345,0.309,0.354,0.284,0.544,0.655,0.613,0.631,0.602,0.538,0.513,0.538,0.488,0.529
NCI-H838,0.892,0.911,0.877,0.77,0.849,0.251,0.295,0.317,0.267,0.269,0.399,0.326,0.326,0.365,0.355,0.22,0.231,0.193,0.201,0.186
NCI-H727,0.492,0.688,0.695,0.592,0.546,0.507,0.415,0.483,0.285,0.419,0.556,0.478,0.693,0.529,0.566,0.711,0.703,0.571,0.666,0.591
UMC-11,,,,,,0.328,0.432,0.573,0.524,0.374,0.502,0.438,0.482,0.458,0.456,0.369,0.374,0.336,0.345,0.366
CAL-12T,0.637,0.656,0.542,0.577,0.666,0.389,0.353,0.435,0.36,0.362,0.604,0.471,0.821,0.486,0.567,0.429,0.62,0.455,0.405,0.437
NCI-H1755,0.338,0.391,0.399,0.409,0.371,0.396,0.466,0.349,0.368,0.423,0.685,0.728,0.605,0.657,0.697,0.447,0.482,0.418,0.42,0.48
NCI-H1651,0.384,0.468,0.439,0.414,0.368,0.386,0.371,0.436,0.378,0.26,0.555,0.632,0.63,0.59,0.586,0.506,0.491,0.483,0.518,0.48
NCI-H2170,0.81,0.825,0.861,0.871,0.917,0.486,0.514,0.662,0.635,0.691,0.717,0.737,0.681,0.66,0.712,0.349,0.407,0.404,0.434,0.329

# Source: the supplement of paper PMC10307832
